# Measured values: US10517889B2, “Modulators of SMAD7 expression” (Ionis Pharmaceuticals, Inc., priority 2017, dated 2019)
# Strand notation (5' to 3'): a small letter for the sugar, then the base; units joined by * are phosphorothioate-linked, units joined directly phosphodiester-linked; [ ] holds rarer units or linkages, { } end groups; capitals alone tell only the bases. e = 2'-O-(2-methoxyethyl) (MOE); [5mC] = 5-methylcytosine; d = 2'-deoxy (DNA)
# Tested on: human SMAD7 mRNA
# Assay: Antisense inhibition of human SMAD7 mRNA expression in Hep3B cells by 5-10-5 MOE gapmers, single concentration, electroporation, RT-PCR (Example 1, Study 1 and 2)
# Assay type: cell-based
# Summary of the method: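 Hep3B cells (20,000/well) electroporated with 5-10-5 MOE gapmer at 5,000 nM or 15,000 nM for approximately 24 h. SMAD7 mRNA quantified by real-time PCR with primer probe set RTS5062 and normalized to RIBOGREEN total RNA. Values are percent inhibition relative to untreated controls.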
# [1] = electroporation with 15,000 nM antisense oligonucleotide (Study 2), 5-10-5 MOE gapmers targeting SEQ ID NO: 1 and 2
# [2] = electroporation, 15,000 nM antisense oligonucleotide (Study 2), 5-10-5 MOE gapmers targeting SEQ ID NO: 1 and 2
# [3] = Study 2, electroporation with 15,000 nM antisense oligonucleotide, 5-10-5 MOE gapmers targeting SEQ ID NO: 1 and 2
# [4] = electroporation, 5,000 nM, approximately 24 hours, relative to untreated control cells, gapmers targeting SEQ ID NO: 1 and 2
# [5] = electroporation, 15,000 nM, approximately 24 hours, relative to untreated control cells, gapmers targeting SEQ ID NO: 1 and 2
substance,measurement,setting,value
771520 (antisense eA*eT*eG*eA*eA*dA*dA*dG*d[5mC]*dA*dA*dG*d[5mC]*dA*d[5mC]*eT*e[5mC]*eA*eG*eG) [compound 771520],% Inhibition of SMAD7 mRNA,[1],37%
same,% inhibition of SMAD7 mRNA expression,[2],12%
771767 (antisense e[5mC]*e[5mC]*eT*eA*eA*dA*dG*dG*dT*dG*dG*dG*dT*d[5mC]*d[5mC]*eA*eT*eT*e[5mC]*e[5mC]) [compound 771767],% Inhibition,[3],16%
771528 (antisense eA*eA*eA*eG*eA*dG*dT*dT*dT*dG*d[5mC]*dA*dT*dG*dA*eA*eA*eA*eG*e[5mC]) [compound 771528],% Inhibition of SMAD7 mRNA,[1],12%
same,% inhibition of SMAD7 mRNA expression,[2],4%
771851 (antisense eG*e[5mC]*eT*eT*eT*dG*dA*dA*dA*dA*d[5mC]*dA*dT*d[5mC]*d[5mC]*e[5mC]*eA*e[5mC]*eT*eT) [compound 771851],% Inhibition,[3],43%
same,% inhibition of SMAD7 mRNA expression,[4],25%
771857 (antisense e[5mC]*eG*eT*e[5mC]*eT*dT*dA*dT*dT*dG*dT*dT*dT*dT*dT*eG*eT*eT*e[5mC]*e[5mC]) [compound 771857],% inhibition of SMAD7 mRNA expression,[2],29%
771609 (antisense eA*eT*eG*eT*e[5mC]*dA*d[5mC]*d[5mC]*dA*dG*dG*dG*d[5mC]*dA*dG*eG*e[5mC]*eA*eG*eG) [compound 771609],% inhibition of SMAD7 mRNA expression,[1],47%
771746 (antisense eA*eA*eG*e[5mC]*e[5mC]*dG*dG*dG*d[5mC]*dA*dT*d[5mC]*dT*d[5mC]*dA*eG*eA*eG*e[5mC]*eA) [compound 771746],% inhibition of SMAD7 mRNA expression,[2],22%
771905 (antisense eT*eA*eG*eG*e[5mC]*dG*dA*dA*dT*d[5mC]*d[5mC]*d[5mC]*dT*d[5mC]*d[5mC]*e[5mC]*e[5mC]*e[5mC]*eA*eA) [compound 771905],% inhibition of SMAD7 mRNA expression,[2],0%
771548 (antisense eG*eG*eT*eG*eT*d[5mC]*d[5mC]*dT*dG*d[5mC]*d[5mC]*dG*dA*dT*d[5mC]*eA*eT*eA*e[5mC]*e[5mC]) [compound 771548],% inhibition of SMAD7 mRNA expression,[3],19%
771391 (antisense eT*e[5mC]*e[5mC]*eG*eG*d[5mC]*dT*dG*d[5mC]*d[5mC]*d[5mC]*d[5mC]*dA*d[5mC]*d[5mC]*e[5mC]*e[5mC]*eG*e[5mC]*eG) [compound 771391],% Inhibition,[3],16%
771741 (antisense eG*eG*eT*e[5mC]*eT*d[5mC]*dA*d[5mC]*d[5mC]*dT*dT*dA*dG*dG*d[5mC]*e[5mC]*eT*eG*eT*eG) [compound 771741],% inhibition of SMAD7 mRNA expression,[5],53%
771388 (antisense eG*e[5mC]*eG*e[5mC]*e[5mC]*d[5mC]*dT*dG*d[5mC]*dG*d[5mC]*dG*dG*d[5mC]*dT*e[5mC]*eT*e[5mC]*e[5mC]*eG) [compound 771388],% inhibition of SMAD7 mRNA expression,[2],31%
771475 (antisense e[5mC]*eG*eT*e[5mC]*eA*dG*d[5mC]*dT*dG*dG*dA*dT*dG*d[5mC]*d[5mC]*eG*e[5mC]*eA*eG*e[5mC]) [compound 771475],% inhibition of SMAD7 mRNA expression,[2],26%
771562 (antisense eA*e[5mC]*eA*e[5mC]*eA*d[5mC]*dA*d[5mC]*dT*d[5mC]*d[5mC]*dT*dG*dA*d[5mC]*eA*eA*eG*eT*eG) [compound 771562],% inhibition of SMAD7 mRNA expression,[2],30%
771650 (antisense eG*eA*eA*eG*eT*dA*dT*d[5mC]*dA*dT*dA*d[5mC]*dG*dA*dG*eT*eG*eT*eA*eT) [compound 771650],% inhibition of SMAD7 mRNA expression,[1],24%
771639 (antisense e[5mC]*eA*eG*e[5mC]*e[5mC]*dT*dA*dG*dG*dA*dT*dG*dG*dT*dA*e[5mC]*e[5mC]*eT*eT*eG) [compound 771639],% inhibition of SMAD7 mRNA expression,[3],51%
771702 (antisense eA*eG*eG*eG*eT*dA*dT*dG*d[5mC]*dA*d[5mC]*dA*d[5mC]*dT*d[5mC]*eT*e[5mC]*e[5mC]*e[5mC]*eA) [compound 771702],% Inhibition,[3],24%
771550 (antisense eT*eG*e[5mC]*eT*eT*d[5mC]*d[5mC]*d[5mC]*d[5mC]*dT*d[5mC]*dT*dT*d[5mC]*d[5mC]*eT*eA*eT*e[5mC]*eA) [compound 771550],% inhibition of SMAD7 mRNA expression,[3],4%
771921 (antisense eT*e[5mC]*e[5mC]*eT*e[5mC]*d[5mC]*d[5mC]*dT*dT*dT*dA*dA*dA*dG*dG*eG*eA*eA*eG*eG) [compound 771921],% inhibition of SMAD7 mRNA expression,[2],14%
771592 (antisense e[5mC]*eT*eG*e[5mC]*eT*d[5mC]*dA*dG*dA*dA*dG*d[5mC]*d[5mC]*dT*dG*eT*eG*eG*eA*e[5mC]) [compound 771592],% Inhibition of SMAD7 mRNA,[1],16%
same,% inhibition of SMAD7 mRNA expression,[2],0%
771878 (antisense e[5mC]*eA*eG*eT*eT*dT*d[5mC]*dT*dA*dG*dA*dG*dG*dG*dT*eA*eG*eG*eA*eA) [compound 771878],% Inhibition,[3],22%
771909 (antisense e[5mC]*eA*eG*eG*e[5mC]*dT*d[5mC]*d[5mC]*d[5mC]*dT*dG*dT*dG*d[5mC]*d[5mC]*eA*eA*eT*e[5mC]*eA) [compound 771909],% inhibition of SMAD7 mRNA expression,[5],52%
771865 (antisense eA*eT*eA*eG*eG*dG*dA*dT*dA*dT*d[5mC]*dT*d[5mC]*dA*dT*e[5mC]*eA*eA*eT*eA) [compound 771865],% inhibition of SMAD7 mRNA expression,[2],38%
771490 (antisense e[5mC]*eT*eT*e[5mC]*eA*d[5mC]*dA*dA*dA*dG*d[5mC]*dT*dG*dA*dT*e[5mC]*eT*eG*e[5mC]*eA) [compound 771490],% inhibition of SMAD7 mRNA expression,[2],44%
771768 (antisense eG*eT*eA*eT*eG*d[5mC]*dT*dT*dG*dG*dG*dA*dT*d[5mC]*dT*eG*eT*e[5mC]*eT*eT) [compound 771768],% Inhibition of SMAD7 mRNA,[1],24%
same,% inhibition of SMAD7 mRNA expression,[2],11%
771693 (antisense eT*e[5mC]*e[5mC]*e[5mC]*eA*dG*dG*dA*dG*dG*dG*dT*dA*dT*dG*e[5mC]*eA*e[5mC]*eA*e[5mC]) [compound 771693],% inhibition of SMAD7 mRNA expression,[5],45%
771941 (antisense eT*e[5mC]*eA*eA*eT*dG*dA*dT*dG*dA*dT*dG*dG*dG*dT*eT*eG*e[5mC]*eA*e[5mC]) [compound 771941],% inhibition of SMAD7 mRNA expression,[5],40%
771605 (antisense eG*eG*e[5mC]*eT*eG*d[5mC]*d[5mC]*d[5mC]*d[5mC]*dG*dG*d[5mC]*dA*dG*d[5mC]*e[5mC]*e[5mC]*eT*eT*eG) [compound 771605],% inhibition of SMAD7 mRNA expression,[5],26%
771854 (antisense eT*e[5mC]*e[5mC]*e[5mC]*e[5mC]*dG*d[5mC]*d[5mC]*dT*dT*dT*dT*d[5mC]*dT*dT*e[5mC]*e[5mC]*eT*eG*eG) [compound 771854],% Inhibition,[3],9%
771383 (antisense eT*eA*e[5mC]*eA*e[5mC]*dA*dA*dA*dT*dA*dA*dA*dA*dA*d[5mC]*eA*e[5mC]*e[5mC]*eA*eA) [compound 771383],% Inhibition,[3],0%
771896 (antisense eG*eG*eG*e[5mC]*e[5mC]*d[5mC]*d[5mC]*d[5mC]*dT*dT*d[5mC]*dT*dG*d[5mC]*d[5mC]*eT*eT*e[5mC]*eA*eT) [compound 771896],% Inhibition of SMAD7 mRNA,[1],17%
same,% inhibition of SMAD7 mRNA expression,[2],0%
771428 (eT*eG*eG*e[5mC]*eA*d[5mC]*d[5mC]*dT*d[5mC]*dG*d[5mC]*dA*d[5mC]*d[5mC]*dG*e[5mC]*e[5mC]*eT*eT*eG; antisense) [compound 771428],% Inhibition,[3],47%
same,% inhibition of SMAD7 mRNA expression,[4],0%
771544 (antisense eA*eA*eA*eA*e[5mC]*d[5mC]*d[5mC]*d[5mC]*d[5mC]*dA*dA*d[5mC]*dA*dA*dT*eT*e[5mC]*eT*eT*eT) [compound 771544],% Inhibition of SMAD7 mRNA,[1],16%
same,% inhibition of SMAD7 mRNA expression,[2],0%
771588 (antisense eA*eG*eG*e[5mC]*e[5mC]*d[5mC]*dG*dT*dG*dT*d[5mC]*d[5mC]*dT*dT*dG*eA*eT*eG*eA*eG) [compound 771588],% inhibition of SMAD7 mRNA expression,[3],13%
771792 (antisense eA*eG*e[5mC]*eA*e[5mC]*dA*d[5mC]*d[5mC]*d[5mC]*d[5mC]*dA*d[5mC]*d[5mC]*d[5mC]*d[5mC]*e[5mC]*eA*e[5mC]*e[5mC]*eT) [compound 771792],% Inhibition of SMAD7 mRNA,[1],33%
same,% inhibition of SMAD7 mRNA expression,[2],2%
771342 (antisense eT*e[5mC]*eA*eG*eT*dT*dG*dG*dT*dT*dT*dG*dA*dG*dA*eA*eA*eA*eT*e[5mC]) [compound 771342],% inhibition of SMAD7 mRNA expression,"electroporation, 15,000 nM, approximately 24 hours, gapmers targeting SEQ ID NO: 3 and 4",35%
771645 (antisense eG*eT*eT*eG*eT*dA*dG*dA*dA*dG*dA*dA*dA*dT*dG*eA*eA*eA*eG*eA) [compound 771645],% inhibition of SMAD7 mRNA expression,[5],38%
771657 (antisense e[5mC]*eT*eT*eA*eT*dG*dT*dT*dA*dA*dA*dG*dT*d[5mC]*dT*eA*eA*eA*e[5mC]*eA) [compound 771657],% inhibition of SMAD7 mRNA expression,[1],6%
771535 (antisense eA*eA*e[5mC]*eA*eA*dA*dA*d[5mC]*dA*dG*dA*dA*d[5mC]*dA*d[5mC]*eA*eA*eA*e[5mC]*eG) [compound 771535],% inhibition of SMAD7 mRNA expression,[3],17%
771526 (antisense eG*eT*eT*eT*eG*d[5mC]*dA*dT*dG*dA*dA*dA*dA*dG*d[5mC]*eA*eA*eG*e[5mC]*eA) [compound 771526],% inhibition of SMAD7 mRNA expression,[3],26%
771652 (antisense eA*eT*eT*eG*eA*dG*d[5mC]*dT*dA*dA*dG*dA*dA*d[5mC]*dA*eG*eT*eG*eT*e[5mC]) [compound 771652],% inhibition of SMAD7 mRNA expression,[3],0%
771631 (antisense eG*eG*eG*eA*e[5mC]*dT*dG*d[5mC]*dT*dA*dA*dG*d[5mC]*dA*dT*eG*eT*e[5mC]*e[5mC]*e[5mC]) [compound 771631],% inhibition of SMAD7 mRNA expression,[3],0%
